Assay results: paper PMC12382614, “(Oxidopyridyl)Porphyrins of Different Lipophilicity: Photophysical Properties, ROS Production and Phototoxicity on Melanoma Cells Under CoCl2-Induced Hypoxia” (Antioxidants, 2025)
Read-outs that look alike come from different tables or passages of the source.

Columns and labels:
[1] = test system: MeWo; assay: Photocytotoxicity, MTT assay; assay type: cell-based, human; details: red light 643 nm 30 min; for IC50: 6 h incubation; for SI (IC50 (HDF) / IC50 (melanoma cells)) MeWo 100 µM CoCl2: CoCl2-induced hypoxia; for SI (IC50 (HDF) / IC50 (melanoma cells)) MeWo No CoCl2: normoxia
Procedure: (§1) For (photo)cytotoxicity assays, stock solutions of porphyrins were prepared in DMSO and dissolved in DMEM to the final concentrations. The porphyrin incubation time was 6h. Irradiation of the cells was with red light (λ = 643 nm) for 30 min (light dose, 3.6 J/cm^2). Nonirradiated cells were used to test the dark toxicity. All measurements were performed in three individual experiments, and the results are shown as the proliferation (%) of the cells and were calculated as IC50 values.
(§2) The cytotoxicity of (oxidopyridyl)porphyrins was assessed by an MTT assay on the HDF, MeWo and A375 cell lines after 6 h of incubation with porphyrins, without irradiation, or after 30 min of irradiation with red light (λ = 643 nm), and under conditions of normoxia or hypoxia. To induce hypoxia, 100 µM of CoCl2 was added at least two hours before the porphyrins. […] Oxygen is also one of the substrates for the activity of prolyl hydroxylases; therefore, in both cases, the result is the blockage of hydroxylation of HIF-1α and, consequently, its increase and stabilisation, which, in the case of CoCl2-induced hypoxia, can be maintained for several hours.

[2] = test system: HDF; assay: Photocytotoxicity, MTT assay; assay type: cell-based, human; details: 6 h incubation, red light 643 nm 30 min
Procedure: as §1, §2

[3] = test system: A375; assay: Photocytotoxicity, MTT assay; assay type: cell-based, human; details: red light 643 nm 30 min; for IC50: 6 h incubation; for SI (IC50 (HDF) / IC50 (melanoma cells)) A375 100 µM CoCl2: CoCl2-induced hypoxia; for SI (IC50 (HDF) / IC50 (melanoma cells)) A375 No CoCl2: normoxia
Procedure: as §1, §2

[4] = test system: HDF, MeWo and A375 cell lines; assay: (Photo)cytotoxicity MTT assay, statements made for all cell lines; assay type: cell-based, human; details: irradiation 643 nm
Procedure: as §1, §2

[5] = UV-Vis absorption spectra in MeOH; assay type: physicochemical
Procedure: (§3) The absorption spectra of (oxidopyridyl)porphyrins were recorded in HPLC grade MeOH on a Cary UV 60 (Agilent Technologies, Santa Clara, CA, USA), in a wavelength range of 300–700 nm. The fluorescence spectra in HPLC grade MeOH were recorded on a Cary Eclipse (Agilent Technologies) in a wavelength range of 500–800 nm after excitation at the Soret band wavelength (λ ~ 420 nm). The slits of the spectrometer were set to a bandpass of 5 nm for the excitation and 5 nm for the emission. To calculate the fluorescence quantum yields, the measurements were conducted on an FS5 Edinburgh Instruments spectrometer. Prior to taking the measurements, the solutions were purged with high-purity N2 for at least 15 min. The absorbance of the solutions was set to A < 0.1 at 405 nm and 550 nm, which settings were used for the excitation process. Emission was recorded from 550 to 800 nm, with slits set to the bandpass corresponding to 2 nm for the excitation, and 3 nm for the emission. Fluorescence quantum yield (ΦFL) was calculated in comparison to the tetraphenylporphyrin (TPP; ΦFL = 0.11 [23]) as a standard, according to Equation (S1) and following an equation previously described elsewhere.

[6] = Fluorescence spectra and fluorescence quantum yield in MeOH; assay type: physicochemical; details: excitation at Soret band
Procedure: as §3

[7] = 3.6 J/cm^2, 100 μM CoCl2 at least 2 h before porphyrin, read-out: IC50 MeWo CoCl2
[8] = 3.6 J/cm^2, normoxia, read-out: IC50 MeWo No CoCl2
[9] = 3.6 J/cm^2, 100 μM CoCl2 at least 2 h before porphyrin, read-out: IC50 HDF CoCl2
[10] = 3.6 J/cm^2, normoxia, read-out: IC50 HDF No CoCl2
[11] = 3.6 J/cm^2, 100 μM CoCl2 at least 2 h before porphyrin, read-out: IC50 A375 CoCl2
[12] = 3.6 J/cm^2, normoxia, read-out: IC50 A375 No CoCl2
[13] = Homo sapiens, MeWo, light or radiation study, 3.6 J/cm^2, 100 μM CoCl2 at least 2 h before porphyrin, read-out: IC50 MeWo CoCl2
[14] = Homo sapiens, MeWo, light or radiation study, 3.6 J/cm^2, normoxia, read-out: IC50 MeWo No CoCl2
[15] = Homo sapiens, HDF, light or radiation study, 3.6 J/cm^2, 100 μM CoCl2 at least 2 h before porphyrin, read-out: IC50 HDF CoCl2
[16] = Homo sapiens, HDF, light or radiation study, 3.6 J/cm^2, normoxia, read-out: IC50 HDF No CoCl2
[17] = Homo sapiens, A-375, light or radiation study, 3.6 J/cm^2, 100 μM CoCl2 at least 2 h before porphyrin, read-out: IC50 A375 CoCl2
[18] = Homo sapiens, A-375, light or radiation study, 3.6 J/cm^2, normoxia, read-out: IC50 A375 No CoCl2

ε Qx (0-0) [5] [M⁻¹ cm⁻¹]	ε Qx (1-0) [5] [M⁻¹ cm⁻¹]	ε Qy (0-0) [5] [M⁻¹ cm⁻¹]	ε Qy (1-0) [5] [M⁻¹ cm⁻¹]	ε Soret (B) [5] [M⁻¹ cm⁻¹]	λabs Qx (0-0) [5] [nm]	λabs Qx (1-0) [5] [nm]	λabs Qy (0-0) [5] [nm]	λabs Qy (1-0) [5] [nm]	λabs Soret (B) [5] [nm]	SMILES	IC50 [1, 7] [nM]	IC50 [1, 8] [nM]	SI (IC50 (HDF) / IC50 (melanoma cells)) MeWo 100 µM CoCl2 [1]	SI (IC50 (HDF) / IC50 (melanoma cells)) MeWo No CoCl2 [1]	IC50 [2, 9] [nM]	IC50 [2, 10] [nM]	IC50 [3, 11] [nM]	IC50 [3, 12] [nM]	SI (IC50 (HDF) / IC50 (melanoma cells)) A375 100 µM CoCl2 [3]	SI (IC50 (HDF) / IC50 (melanoma cells)) A375 No CoCl2 [3]	other results
–	–	–	–	–	–	–	–	–	–	CCCCCCCCCC(=O)Nc1ccc(-c2c3nc(c(-c4ccc[n+](C)c4)c4ccc([nH]4)c(-c4ccc[n+](C)c4)c4nc(c(-c5ccc[n+](C)c5)c5ccc2[nH]5)C=C4)C=C3)cc1 [TMPyP3-C9H19]	6810 ± 1360	3520 ± 650	1.3	2.0	8870 ± 20	7090 ± 660	990 ± 130	670 ± 30	9.0	10.6	–
–	–	–	–	–	–	–	–	–	–	CCCCCCCCCCCCCC(=O)Nc1ccc(-c2c3nc(c(-c4ccc[n+](C)c4)c4ccc([nH]4)c(-c4ccc[n+](C)c4)c4nc(c(-c5ccc[n+](C)c5)c5ccc2[nH]5)C=C4)C=C3)cc1 [TMPyP3-C13H27]	610 ± 160	430 ± 30	1.6	1.9	990 ± 50	810 ± 50	220 ± 80	150 ± 60	4.5	5.4	IC50 ([4]; with or without CoCl2, read-out: IC50 in all the tested cells): ≤ 1000 nM
1500	4900	5100	15400	296400	645	588	548	512	417	CCCCCCCCCC(=O)Nc1ccc(-c2c3nc(c(-c4ccc[n+]([O-])c4)c4ccc([nH]4)c(-c4ccc[n+]([O-])c4)c4nc(c(-c5ccc[n+]([O-])c5)c5ccc2[nH]5)C=C4)C=C3)cc1 [TOPyP3-C9H19, 5-(4-Decanamidophenyl)-10,15,20-tris(1-oxido-3-pyridyl)porphyrin]	–	–	1.2	0.6	–	–	–	–	1.4	0.9	phototoxicity / reduction of proliferation at 1 µM ([4]; 1 µM, normoxia or CoCl2-induced hypoxia): very low; λFL Q(0,0) [6]: 648 nm; λFL Q(0,1) [6]: 713 nm; IC50 [1, 13]: 6280 ± 820 nM; IC50 [1, 14]: 5460 ± 1080 nM; IC50 [2, 15]: 7650 ± 60 nM; IC50 [2, 16]: 3490 ± 450 nM; IC50 [3, 17]: 5460 ± 1480 nM; IC50 [3, 18]: 3870 ± 450 nM
2000	6000	5800	19300	364600	646	588	547	512	417	CCCCCCCCCCCCCC(=O)Nc1ccc(-c2c3nc(c(-c4ccc[n+]([O-])c4)c4ccc([nH]4)c(-c4ccc[n+]([O-])c4)c4nc(c(-c5ccc[n+]([O-])c5)c5ccc2[nH]5)C=C4)C=C3)cc1 [TOPyP3-C13H27, 5-(4-Tetradecanamidophenyl)-10,15,20-tris(1-oxido-3-pyridyl)porphyrin]	–	–	1.5	0.8	–	–	–	–	3.0	1.1	λFL Q(0,0) [6]: 648 nm; λFL Q(0,1) [6]: 713 nm; IC50 [1, 13]: 1790 ± 370 nM; IC50 [1, 14]: 1040 ± 90 nM; IC50 [2, 15]: 2620 ± 190 nM; IC50 [2, 16]: 860 ± 40 nM; IC50 [3, 17]: 860 ± 60 nM; IC50 [3, 18]: 780 ± 170 nM
